Results as given in patent US5776944A, “7-(4-aminomethyl-3-methyloxyiminopyrroplidin-1-yl)-1-cyclopropyl-6-flu oro-4-oxo-1,4-dihydro-1,8-naphthyridine-3-carboxylic acid and the process for the preparation thereof” (LG Chemical Ltd., priority 1994, dated 1998).
In brackets after ≈: the same amount, converted by molar mass. Entries after “also recorded” stand apart in the source; their conditions may differ.

Columns and labels:
[1] = Thermal analysis (Differential Scanning Calorimetry); assay type: physicochemical; settings: DSC, 10° C./min
Description: For the Differential Scanning Calorimetry, METTLER TOLEDO DSC821e and METTLER TOLEDO STARe System were used. 3.7 mg of sample was weighed into the aluminum pan, which was then press sealed with an aluminum lid. After three tiny needle holes were made on the lid, the sample was tested by heating from normal temperature to 250° C. at a rate of 10° C./min.

[2] = Equilibrium moisture content determination of hydrates; assay type: physicochemical
Description: Six saturated aqueous salt solutions were introduced into each desiccator to control the inner relative humidity to a specific value as represented in the following Table 28. Then, equilibrium moisture contents of 3 hydrate and 1.5 hydrate prepared in Examples 205 and 206, respectively, were determined at several relative humidities.
Specifically, 100 mg of the sample was spread on a preweighed Petri dish and the total weight was accurately measured, then three of the sample were placed in each desiccator of Table 28. The desiccators were allowed to stand at normal temperature for 7 days and then the sample was taken to be weighed. After 13 days had passed, one of the three samples inside each desiccator was taken and the moisture content of each was measured by the thermogravimetric analysis described in Test Example 2. Equilibrium moisture content at each relative humidity is represented in FIG. 3 (3 hydrate), and FIG. 4 (1.5 hydrate). […] Both hydrates are stable since they keep a constant equilibrium moisture content regardless of the relative humidity change.

[3] = Chemical stability under heating; settings: for thermal stability: hydrate
Description: The anhydride and each of the hydrates was introduced into a glass vial and maintained at 70° C.

[4] = Moisture content according to hydration number; assay type: physicochemical
Description: The moisture content of the hydrate varies with the hydration number (n) of the hydrated molecule. Since the molecular weight of 7-(4-amino-methyl-3-methyloxylminopyrrolidin-1-yl)-1-cyclopropyl-6-fluoro- 4-oxo-1,4-dihydro-1,8-naphthyridine-3-carboxylic acid methanesulfonate is 485.5, the moisture content of the hydrate for n equal to 1, 1.5, 2, 2.5, 3, 3.5 or 4 is calculated to be 3.6%, […], 6.9%, 8.5%, 10.0%, 11.5% or 12.9%, respectively. However, the actual moisture content may differ from the calculated moisture content depending on differences in recrystallization conditions, drying conditions, etc.

[5] = system: Staphylococcus aureus 6538p; experiment: In vitro antibacterial activity (MIC, agar dilution), Biological Example 1; assay type: cell-based; settings: 18 h, Table 25, read-out: Minimum Inhibitory Concentration
[6] = system: Staphylococcus aureus giorgio; experiment: as above; assay type: cell-based; settings: 18 h, Table 25, read-out: Minimum Inhibitory Concentration
[7] = system: Staphylococcus aureus 77; experiment: as above; assay type: cell-based; settings: 18 h; Staphylococcus aureus 77, Table 25; read-out: Minimum Inhibitory Concentration
[8] = system: Staphylococcus aureus 241; experiment: as above; assay type: cell-based; settings: 18 h; Staphylococcus aureus 241, Table 25; read-out: Minimum Inhibitory Concentration
[9] = system: Staphylococcus epidermidis 887E; experiment: as above; assay type: cell-based; settings: 18 h, Table 25, read-out: Minimum Inhibitory Concentration
[10] = system: Staphylococcus epidermidis 178; experiment: as above; assay type: cell-based; settings: 18 h; Staphylococcus epidermidis 178, Table 25; read-out: Minimum Inhibitory Concentration
[11] = system: Streptococcus faecalis 29212; experiment: as above; assay type: cell-based; settings: Enterococcus faecalis, 18 h; Streptococcus faecalis 29212, Table 25; read-out: Minimum Inhibitory Concentration
[12] = system: Bacillus subtilis 6633; experiment: as above; assay type: cell-based; settings: 18 h; Bacillus subtilis 6633, Table 25; read-out: Minimum Inhibitory Concentration
[13] = system: Micrococcus luteus 9341; experiment: as above; assay type: cell-based; settings: 18 h; Micrococcus luteus 9341, Table 25; read-out: Minimum Inhibitory Concentration
[14] = system: Escherichia coli 10536; experiment: as above; assay type: cell-based; settings: 18 h; Escherichia coli 10536, Table 25; read-out: Minimum Inhibitory Concentration
[15] = system: Escherichia coli 3190Y; experiment: as above; assay type: cell-based; settings: 18 h, Table 25, read-out: Minimum Inhibitory Concentration
[16] = system: Escherichia coli 851E; experiment: as above; assay type: cell-based; settings: 18 h, Table 25, read-out: Minimum Inhibitory Concentration
[17] = system: Escherichia coli TEM3 3455E; experiment: microbe, parasite or virus in culture; assay type: cell-based; settings: TEM33455E, 18 h, read-out: Minimum Inhibitory Concentration
[18] = system: Escherichia coli TEM5 3739E; experiment: microbe, parasite or virus in culture; assay type: cell-based; settings: TEM53739E, 18 h, read-out: Minimum Inhibitory Concentration
[19] = system: Escherichia coli TEM9 2639E; experiment: microbe, parasite or virus in culture; assay type: cell-based; settings: TEM92639E, 18 h, read-out: Minimum Inhibitory Concentration
[20] = system: Pseudomonas aeruginosa 1912E; experiment: In vitro antibacterial activity (MIC, agar dilution), Biological Example 1; assay type: cell-based; settings: 18 h; Pseudomonas aeruginosa 1912E, Table 25; read-out: Minimum Inhibitory Concentration
[21] = system: Pseudomonas aeruginosa 10145; experiment: as above; assay type: cell-based; settings: 18 h; Pseudomonas aeruginosa 10145, Table 25; read-out: Minimum Inhibitory Concentration
[22] = system: Acinetobacter calcoaceticus 15473; experiment: as above; assay type: cell-based; settings: 18 h; Acinetobacter calcoaceticus 15473, Table 25; read-out: Minimum Inhibitory Concentration
[23] = system: Citrobacter diversus 2046E; experiment: as above; assay type: cell-based; settings: Citrobacter koseri, 18 h, Table 25, read-out: Minimum Inhibitory Concentration
[24] = system: Enterobacter cloacae 1194E; experiment: microbe, parasite or virus in culture; assay type: cell-based; settings: 18 h, read-out: Minimum Inhibitory Concentration
[25] = system: Enterobacter cloacae P99; experiment: microbe, parasite or virus in culture; assay type: cell-based; settings: P99, 18 h, read-out: Minimum Inhibitory Concentration
[26] = system: Klebsiella aerogenes 1976E; experiment: In vitro antibacterial activity (MIC, agar dilution), Biological Example 1; assay type: cell-based; settings: 18 h, Table 25, read-out: Minimum Inhibitory Concentration
[27] = system: Klebsiella aerogenes 1082E; experiment: as above; assay type: cell-based; settings: 18 h, Table 25, read-out: Minimum Inhibitory Concentration
[28] = system: Salmonella typimurium 14028; experiment: as above; assay type: cell-based; settings: 18 h; Salmonella typimurium 14028, Table 25; read-out: Minimum Inhibitory Concentration
[29] = Acute oral toxicity test; settings: in vivo, ICR male mouse, 7 days
Description: To determine the acute oral toxicity of the compounds prepared in Examples 1 and 34, the test solution containing the compounds in various concentrations were orally administered to ICR male mouse in an amount of 10 ml per kg of body weight. For 7 days after administration, the lethality and the conditions of test mouse were observed, from which LD50 value (mg/kg), was calculated.

[30] = Moisture adsorption test of the anhydride; assay type: physicochemical; settings: 25° C.
Description: Under various relative humidities at 25° C., the moisture adsorption velocity and the equilibrium moisture content of the anhydride prepared in Example 203 were determined by means of an automatic moisture adsorption analyzer (MB 300 G Gravimetric Sorption Analyzer). This instrument produces a specific relative humidity at a specific temperature and continuously records the weight change of a sample due to adsorption or desorption of moisture as measured by a micro balance inside the instrument. 16 mg of the anhydride sample was loaded on the micro balance and the moisture contained in the sample was removed under a dry nitrogen stream at 50° C. A weight change of less than 5 μg per 5 minutes was the criterion for complete dryness. Thereafter, the inner temperature was adjusted to 25° C., and the sample was tested varying the relative humidity from 0 to 95% at 5% intervals. The sample was considered to have reached equilibrium at each relative humidity tested when the weight change was less than 5 μg per 5 minutes. […] In most cases, the equilibrium was reached within 2 hours.

[31] = Humidification of the anhydride with humidified nitrogen (Example 205); assay type: physicochemical
Description: A sonicator filled with water was adjusted to 40° C. and was sealed with a lid. Then, a nitrogen introducing tube and a nitrogen excreting tube were connected to the vessel. When the pressure of the dried nitrogen introduced through the nitrogen introducing tube was adjusted to 20 psi, the relative humidity of the humidified nitrogen excreted through the excreting tube was more than 93%. […] Samples were taken after 0, 5, 10, 20, 30, and 60 minutes, respectively, and the moisture content with the lapse of time was measured. From the results shown in FIG. 8, it can be seen that moisture content of about 10% is constantly maintained when the humidifying procedure is carried out over 30 minutes. The X-ray diffraction pattern of the humidified sample was identical to that the 3 hydrate obtained after recrystallization.

[32] = system: gram-positive strains; settings: background art; cited from earlier work
[33] = background art; cited from earlier work

For `CON=C1CN(c2nc3c(cc2F)c(=O)c(C(=O)O)cn3C2CC2)CC1CN` (stereo not shown) [3 hydrate, 7-(4-aminomethyl-3-methyloxyiminopyrrolidin-1-yl)-1-cyclopropyl-6-fluoro-4-oxo-1,4-dihydro-1,8-naphthyridine-3-carboxylic acid methanesulfonate·3 hydrate], which “onset of endothermic peak (vaporization of water)” value [1] is on record?
The value was “around 50 °C”.

And the “stability of hydrate towards relative humidity change” value [2]?
The value was “stable”.

And the equilibrium moisture content ([2]; whole relative humidity range tested (23 to 75%))?
The equilibrium moisture content was “around 10%”.

And the “thermal stability compared with the anhydride” value ([3]; 70° C., Table 29)?
Its value is “the same degree of thermal stability as the anhydride”.

And the thermal stability ([3]; 40320 min)?
Its thermal stability is 94%.

What about the thermal stability [3] of the same compound?
Its thermal stability is 97%.

What about the “Moisture Content” value ([4]; actual moisture content, methanesulfonate hydrates, hydrate) of the same compound?
Its value is 9-11%.

And the “change of moisture content” value ([4]; among stable hydrates)?
The value was “lowest”.

Which results are given for `NCC1CN(c2c(F)cc3c(=O)c(C(=O)O)cn(C4CC4)c3c2Cl)CC1=NOCc1ccccc1` (stereo not shown) [Example 34, 7-(4-aminomethyl-3-benzyoxyimino-pyrrolidin-1-yl)-8-chloro-1-cyclopropyl-6-fluoro-1,4-dihydro-4-oxo-guinoline-3-carboxylic acid]?
MIC [5]: ≤ 0.008 µg/mL; MIC [6]: ≤ 0.008 µg/mL; MIC [7]: ≤ 0.008 µg/mL; MIC [8]: 4 µg/mL (≈ 8.02 µM); MIC [9]: ≤ 0.008 µg/mL; MIC [10]: 2 µg/mL (≈ 4.01 µM); MIC [11]: 0.13 µg/mL (≈ 0.261 µM); MIC [12]: ≤ 0.008 µg/mL; MIC [13]: 0.13 µg/mL (≈ 0.261 µM); MIC [14]: 0.016 µg/mL (≈ 0.0321 µM); MIC [15]: ≤ 0.008 µg/mL; MIC [16]: 0.13 µg/mL (≈ 0.261 µM); MIC [17]: 1 µg/mL (≈ 2 µM); MIC [18]: 0.5 µg/mL (≈ 1 µM); MIC [19]: 0.13 µg/mL (≈ 0.261 µM); MIC [20]: 0.5 µg/mL (≈ 1 µM); MIC [21]: 2 µg/mL (≈ 4.01 µM); MIC [22]: 0.031 µg/mL (≈ 0.0621 µM); MIC [23]: 0.25 µg/mL (≈ 0.501 µM); MIC [24]: 0.25 µg/mL (≈ 0.501 µM); MIC [25]: 0.063 µg/mL (≈ 0.126 µM); MIC [26]: 0.5 µg/mL (≈ 1 µM); MIC [27]: 0.031 µg/mL (≈ 0.0621 µM); MIC [28]: 0.063 µg/mL (≈ 0.126 µM); LD50 at 168 h [29]: > 3000 mg/kg

With `CON=C1CN(c2nc3c(cc2F)c(=O)c(C(=O)O)cn3C2CC2)CC1CN` (stereo not shown) [anhydride, 7-(4-aminomethyl-3-methyloxyiminopyrrolidin-1-yl)-1-cyclopropyl-6-fluoro-4-oxo-1,4-dihydro-1,8-naphthyridine-3-carboxylic acid methanesulfonate anhydride] as the compound, how does the moisture adsorption ([30]; relative humidity 0 to 95%) read?
The moisture adsorption was “Initial moisture adsorption proceeded very speedily at each relative humidity tested; also recorded: the equilibrium moisture content is dependent upon the relative humidity”.

What about the “time to reach moisture adsorption equilibrium” value ([30]; relative humidity 0 to 95% at 5% intervals, in most cases) of the same compound?
Its value is ≤ 2 h.

And the endothermic peak [1]?
Its endothermic peak is “without any endothermic peak”.

And the Moisture Content ([31]; before humidification)?
Its Moisture Content is “about 2.5%”.

And the Moisture Content ([31]; humidified nitrogen, over 30 minutes, FIG. 8)?
Its Moisture Content is “about 10%”.

Which “antibacterial activity against gram-positive strains” value [32] does the source give for `CCn1cc(C(=O)O)c(=O)c2cc(F)c(N3CCNCC3)cc21` [norfloxacin] here?
The value was “weak antibacterial activity against gram-positive strains”.

And the “distribution and absorption in living body” value [33]?
Its value is “poor distribution and absorption in living body”.
